In patent US20240352046A1, “ECTONUCLEOTIDE PYROPHOSPHATASE-PHOSPHODIESTERASE-1 (ENPP1) INHIBITORS AND USES THEREOF” (1cBio, Inc., priority 2020, published 2024):
Where two headings read alike, the source gives them in different places.

Columns and labels:
[1] = target: ENPP-1 (Ectonucleotide Pyrophosphatase/Phosphodiesterase 1) (Homo sapiens (Human), UniProt P22413); assay: ENPP1 inhibition assay (AMP Glo, cGAMP substrate); assay type: biochemical; details: cGAMP 20 μM substrate, ENPP1 1 nM
[2] = system: IP-10 release in differentiated THP-1 cells; assay: IP-10 cytokine release assay in THP-1 cell lines; assay type: cell-based, Human; details: for EC50: Homo sapiens, IP-10 release over cGAMP induced release; for Percent release IP-10 (Absolute): differentiated THP-1
Procedure: Percent release of Interferon gamma-induced protein 10 (IP-10) was determined in acute monocytic leukemia (THP-1; ATCC® TIB-202™) cell line. THP-1 cells (0.2×10^6 cells/well) were differentiated using phorbol 12-myristate 13-acetate (PMA, 10 nM (final concentration); Cat #P8139, Sigma) and incubated for 24 h at 37° C., 5% CO2 in an incubator (cell culture conditions) prior to treating with serial dilutions of compounds (3 fold, 6 point dose response starting at 10 μM). After treatment with the compounds cells were further incubated for 2 h under cell culture conditions and then exposed to 2′,3′-cGAMP (c-GAMP, 1 μM (final concentration); Cat #SML 1229, Sigma). Differentiated THP-1 cells were further cultured for 24 h after which the supernatant was harvested, and ELISA was performed as per the manufacturer's protocol (BD optEIA Human IP-10 ELISA Set; Cat #550926 & 550534, BD Biosciences). Plates were read in Biotek plate reader by measuring absorbance at 450 nm.
The release of absolute IP-10 in differentiated THP-1 by compounds in the presence of cGAMP was quantified with reference to standard after subtracting blank (negative) reading from the test readings. The absolute release of IP-10 in the presence of cGAMP (1 μM) is given in the bar-graph (FIG.-1) and in the table-B2a.
The release of IP-10 in differentiated THP-1 by compounds over cGAMP induced release at four different concentrations of cGAMP (1, 5, 10 & 30 μM) was quantified with reference to standard by normalizing the blank (negative) subtracted test readings from average of cGAMP activated cells at that particular concentration. The EC50's was calculated by fitting the curve to the “four-parameter variable slope logistic model” using Prism Graph Pad.

[3] = system: IFN-β release in differentiated THP-1 cells; assay: IFN-β cytokine release assay in THP-1; assay type: cell-based; details: Homo sapiens, read-out: EC50 (μM) @ 1 μM of cGAMP; IFN-β release over cGAMP induced release, THP-1, 1 μM cGAMP
Procedure: Percent release of Interferon Beta (IFN-03) was determined in acute monocytic leukemia (THP-1; ATCC® TIB-202™) cell line. THP-1 cells (0.3×10^6 cells/well) were differentiated using phorbol 12-myristate 13-acetate (PMA, 50 ng/mL; Cat #P8139, Sigma) and incubated for 24 h at 37° C., 5% CO2 in an incubator (cell culture conditions) prior to treating with serial dilutions of compounds (3 fold, 5 point dose response starting at […]). After treatment with the compounds cells were further incubated for 2 h under cell culture conditions and then exposed to 2′,3′-cGAMP (c-GAMP, 1 μM; Cat #SML 1229, Sigma). Differentiated THP-1 cells were further cultured for 6 h after which the supernatant was harvested, and ELISA was performed as per the manufacturer's protocol (Human IFN-beta Quantikine ELISA Kit; Cat #DIFNB0, R&D systems). Plates were read in Biotek plate reader by measuring absorbance at 450 nm.

[4] = system: IFN-β release in mouse splenocytes; assay: IFN-β in mouse splenocyte assay; assay type: cell-based, Balb/c mice; details: activated Balb/c splenocytes, cGAMP 1 μM, 24 hr
Procedure: Percent release of Interferon Beta (IFN-03) is determined in mouse splenocytes isolated from Balb/c mice. Mouse splenocytes ([…] cells/well) were activated with Anti-mouse CD3e (3 μg/mil, coated overnight at 4° C.; Cat #14-0032-82, eBioscience) and then incubated with Anti-mouse CD28 (3 μg/ml soluble; Cat #16-0289-81, eBiosciences) for 24 h at 37° C., 5% CO2 in an incubator (cell culture conditions) prior to treating them with serial dilutions of compounds (3 fold, 6 point dose response starting at 30 μM). After treatment with the compounds cells are further incubated for 2 h under cell culture conditions and then treated with 2′,3′-cGAMP (c-GAMP, 1 μM; Cat #SML 1229, Sigma). Splenocytes were further incubated under cell culture conditions for 24 hr after which the supernatant was harvested, and ELISA was performed as per the manufacturer's protocol (mIFN-β kit; Cat #MIFNB0 & DY008, R&D Systems). Plates were read in Biotek plate reader by measuring absorbance at 450 nm.

[5] = system: IP-10 release in mouse splenocytes; assay: IP-10 in mouse splenocyte assay; assay type: cell-based, Balb/c mice; details: activated Balb/c splenocytes, cGAMP 1 μM, 48 hr
Procedure: Percent release of Interferon gamma-induced protein 10 (IP-10) was determined in mouse splenocytes isolated from Balb/c mice. Mouse splenocytes (2.5*10^5 cells/well) were activated with Anti-mouse CD3e (3 μg/ml, coated overnight at 4° C.; Cat #14-0032-82, eBioscience) and then incubated with Anti-mouse CD28 (3 μg/ml soluble; Cat #16-0289-81, eBiosciences) for 24 h at 37° C., 5% CO2 in an incubator (cell culture conditions) prior to treating them with serial dilutions of compounds (3 fold, 6 point dose response starting at 30 μM). After treatment with the compounds cells were further incubated for 2 h under cell culture conditions and then treated with 2′,3′-cGAMP (c-GAMP, 1 μM; Cat #SML 1229, Sigma). Splenocytes were further incubated under cell culture conditions for 48 hr after which the supernatant was harvested, and ELISA was performed as per the manufacturer's protocol (mIP-10 kit; Cat #DY466-05 & DY008, R&D Systems). Plates were read in Biotek plate reader by measuring absorbance at 450 nm.

ENPP-1 (Ectonucleotide Pyrophosphatase/Phosphodiesterase 1), sequence (P22413 whole entry): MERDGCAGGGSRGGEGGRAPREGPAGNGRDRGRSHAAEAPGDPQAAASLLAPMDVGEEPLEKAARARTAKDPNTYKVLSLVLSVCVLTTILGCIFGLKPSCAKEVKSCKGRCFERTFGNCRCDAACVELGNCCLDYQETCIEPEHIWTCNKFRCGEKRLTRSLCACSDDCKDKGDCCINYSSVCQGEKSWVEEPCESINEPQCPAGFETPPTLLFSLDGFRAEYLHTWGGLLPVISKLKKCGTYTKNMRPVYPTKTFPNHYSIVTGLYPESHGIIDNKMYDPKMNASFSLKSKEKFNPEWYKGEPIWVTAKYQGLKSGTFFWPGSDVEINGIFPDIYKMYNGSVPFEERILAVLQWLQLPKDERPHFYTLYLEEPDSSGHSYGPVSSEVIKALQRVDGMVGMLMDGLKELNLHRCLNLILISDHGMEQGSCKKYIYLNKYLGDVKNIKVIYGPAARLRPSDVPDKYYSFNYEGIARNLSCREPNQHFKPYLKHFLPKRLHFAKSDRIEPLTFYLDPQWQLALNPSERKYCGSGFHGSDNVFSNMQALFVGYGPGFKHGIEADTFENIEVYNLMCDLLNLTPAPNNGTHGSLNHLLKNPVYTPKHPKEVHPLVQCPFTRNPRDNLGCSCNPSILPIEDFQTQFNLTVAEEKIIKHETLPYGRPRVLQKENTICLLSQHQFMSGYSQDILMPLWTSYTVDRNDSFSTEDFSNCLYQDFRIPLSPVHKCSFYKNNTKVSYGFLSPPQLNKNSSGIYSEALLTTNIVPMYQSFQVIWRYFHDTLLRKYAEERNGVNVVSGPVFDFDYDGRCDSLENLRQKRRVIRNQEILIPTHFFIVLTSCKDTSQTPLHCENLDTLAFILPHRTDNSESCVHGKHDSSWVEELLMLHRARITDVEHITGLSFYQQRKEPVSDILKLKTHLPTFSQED

`COc1cc2ncnc(N3CC(CCNS(N)(=O)=O)C3)c2cc1OC` [Compound 1.1, (2-(1-(6,7-dimethoxyquinazolin-4-yl)azetidin-3-yl)ethyl)aminisulfonamide] was tested, and the IC50 [1] was 0.008 µM, the EC50 ([2]; read-out: EC50 (μM)@ 1 μM of cGAMP, THP-1, 1 μM cGAMP) was 0.308 µM and the EC50 ([2]; read-out: EC50 (μM)@ 10 μM of cGAMP, THP-1, 10 μM cGAMP) was 0.471 µM. For the same compound, the EC50 ([2]; read-out: EC50 (μM)@ 30 μM of cGAMP, THP-1, 30 μM cGAMP) was 0.624 µM, the EC50 ([2]; THP-1, 5 μM cGAMP, read-out: EC50 (μM)@ 5 μM of cGAMP) was less than 0.12 µM and the “Percent release IP-10 (Absolute)” value ([2]; cGAMP (1 μM) + compound 0.37 μM) was 8.9%. The “Percent release IP-10 (Absolute)” value ([2]; cGAMP (1 μM) + compound 1.11 μM) was 11.4%, the “Percent release IP-10 (Absolute)” value ([2]; cGAMP (1 μM) + compound 3.33 μM) was 13.1% and the “Percent release IP-10 (Absolute)” value ([2]; cGAMP (1 μM) + compound 10 μM) was 18.3%. The “Percent release IP-10 (Absolute)” value ([2]; cGAMP (1 μM) + compound […]) was 7.0%, the EC50 [3] was less than 3.35 µM and the IC50 [4] was 3090 nM. For the same compound, the IC50 [5] was 1720 nM.
